The supplement of paper PMC10307832

What was measured:
Assay in all cases: relative viability (nuclei count vs DMSO), 5 days (fraction); higher = more cells survive
[1] = compound: CN1CCC(CNc2ccc3ncc(-c4cccc(OC(F)(F)F)c4)n3n2)CC1 [SGI-1776] + O=C(CCCCCCC(=O)Nc1ccccc1)NO [Vorinostat] (partner 1 µM)
Method in brief: (§1)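 Lung cancer cell lines were pin-tool dosed in 1536-well plates on the day after seeding, with either a lone drug or a fixed anchor-drug dose plus five library-drug doses (not always all listed) in √10 steps. Nuclei were counted on 4× images after 5 days. Relative viability is the ratio of treated-well to vehicle-well nuclei counts, with each value a median of duplicate plates.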

[2] = compound: CN1CCC(CNc2ccc3ncc(-c4cccc(OC(F)(F)F)c4)n3n2)CC1 [SGI-1776] + Cc1nc(NC(=O)N2CCC[C@H]2C(N)=O)sc1-c1ccnc(C(C)(C)C(F)(F)F)c1 [Alpelisib] (partner 2 µM)
Method in brief: as §1

[3] = compound: Nc1ccccc1NC(=O)c1ccc(CNC(=O)OCc2cccnc2)cc1 [Entinostat] + Cc1nc(Nc2ncc(C(=O)Nc3c(C)cccc3Cl)s2)cc(N2CCN(CCO)CC2)n1 [Dasatinib] (partner 0.075 µM)
Method in brief: as §1

[4] = compound: Nc1ccccc1NC(=O)c1ccc(CNC(=O)OCc2cccnc2)cc1 [Entinostat] + Cc1cc(Nc2cc(N3CCN(C)CC3)nc(Sc3ccc(NC(=O)C4CC4)cc3)n2)n[nH]1 [Tozasertib] (partner 0.1 µM)
Method in brief: as §1

| Cell Line | relative viability ([1]; first compound 0.08 µM) | relative viability ([1]; first compound 0.8 µM) | relative viability ([1]; first compound 2.53 µM) | relative viability ([1]; first compound 8 µM) | relative viability ([2]; first compound 0.08 µM) | relative viability ([2]; first compound 0.8 µM) | relative viability ([2]; first compound 2.53 µM) | relative viability ([2]; first compound 8 µM) | relative viability ([3]; first compound 0.02 µM) | relative viability ([3]; first compound 0.06325 µM) | relative viability ([3]; first compound 0.2 µM) | relative viability ([3]; first compound 0.6325 µM) | relative viability ([3]; first compound 2 µM) | relative viability ([4]; first compound 0.02 µM) | relative viability ([4]; first compound 0.06325 µM) | relative viability ([4]; first compound 0.2 µM) | relative viability ([4]; first compound 0.6325 µM) | relative viability ([4]; first compound 2 µM) |
| --- | --- | --- | --- | --- | --- | --- | --- | --- | --- | --- | --- | --- | --- | --- | --- | --- | --- | --- |
| LC-2-ad | 0.676 | 0.709 | 0.663 | 0.66 | 1.06 | 1 | 0.94 | 0.731 | 0.516 | 0.533 | 0.428 | 0.222 | 0.165 | 0.425 | 0.367 | 0.368 | 0.299 | 0.242 |
| ABC-1 | 1.02 | 1.14 | 1.01 | 0.702 | 1.12 | 0.977 | 1.06 | 0.948 | 0.47 | 0.751 | 0.663 | 0.51 | 0.486 | 0.175 | 0.237 | 0.189 | 0.2 | 0.193 |
| NCI-H596 | 0.583 | 0.75 | 0.595 | 0.485 | 0.529 | 0.439 | 0.357 | 0.349 | 0.627 | 0.593 | 0.576 | 0.448 | 0.378 | 0.76 | 0.93 | 1.14 | 0.621 | 0.503 |
| NCI-H1734 | 0.809 | 0.913 | 0.801 | 0.662 | 0.69 | 0.798 | 0.733 | 0.559 | 0.486 | 0.585 | 0.578 | 0.476 | 0.403 | 0.25 | 0.296 | 0.267 | 0.215 | 0.22 |
| LOU-NH91 | 0.976 | 1 | 0.845 | 0.644 | 0.783 | 0.691 | 0.707 | 0.533 | 0.565 | 0.607 | 0.574 | 0.566 | 0.509 | 0.736 | 0.671 | 0.616 | 0.523 | 0.344 |
| NCI-H2170 | 0.83 | 0.825 | 0.853 | 0.76 | 0.858 | 0.835 | 0.697 | 0.635 | 0.532 | 0.636 | 0.69 | 0.558 | 0.365 | 0.685 | 0.677 | 0.461 | 0.391 | 0.172 |
| NCI-H1793 | 0.843 | 1.15 | 0.768 | 0.638 | 0.807 | 0.808 | 0.974 | 0.602 | 0.422 | 0.404 | 0.376 | 0.228 | 0.192 | 0.309 | 0.308 | 0.284 | 0.205 | 0.175 |
| NCI-H322M | 0.882 | 0.926 | 0.846 | 0.707 | 0.883 | 0.934 | 0.928 | 0.756 | 0.271 | 0.274 | 0.275 | 0.298 | 0.313 | 0.505 | 0.555 | 0.519 | 0.461 | 0.448 |
| PC-3 [JPC-3] | 0.853 | 1.04 | 0.756 | 0.421 | 1.1 | 0.946 | 1.06 | 0.971 | 1.07 | 0.87 | 0.95 | 0.666 | 0.405 | 0.898 | 0.786 | 0.685 | 0.59 | 0.326 |
| EPLC-272H | 0.468 | 0.505 | 0.545 | 0.249 | 0.943 | 0.952 | 1.16 | 0.804 | 0.364 | 0.417 | 0.289 | 0.195 | 0.2 | 0.265 | 0.291 | 0.277 | 0.154 | 0.197 |
| A-427 | 0.861 | 0.9 | 0.882 | 0.815 | 1.16 | 1.14 | 1.12 | 1.02 | 0.707 | 0.679 | 0.614 | 0.525 | 0.442 | 0.213 | 0.225 | 0.203 | 0.182 | 0.159 |
